In patent US20060058217A1, “Compositions and methods for treatment of ovarian cancer” (priority 2003, published 2006):

How the values were obtained:
[1] = tested on: stimulated splenic T-cells (CD3+ and CD8+); assay: FACS analysis of splenic CD3+ and CD8+ cells co-cultured with tumor ascites inhibitory cells; assay type: cell-based, mouse; details: antalarmin 0.5 to 1 micromolar; co-culture with tumor ascites inhibitory cells
Fas ligand = details: resulting in decreased apoptosis of fetal cell-recognizing T-cells; cited from earlier work
spleen cells = assay: splenic cell yields after challenge with ID8 murine ovarian carcinoma cells; assay type: in vivo, C57BL6 mice
From the text: Normal C57BL6 mice were challenged with ID8 murine ovarian carcinoma cells (intraperitoneally) in the presence of control vehicle (diluent), antalarmin, T-cell stimulation with 2C11 antibody, or antalarmin plus T-cell stimulation. Ten days after challenge, spleen cells were harvested and T-cells were restimulated with either antibody to the T-cell receptor and co-receptor or ID8 tumor cells in the presence of antalarmin, antibody stimulation, or a combination of antalarmin plus antibodies to T-cell receptor and co-receptor. Six days later, cells were harvested and tested for splenic cell yields. […] Treatment with tumor cells plus antalarmin plus antibody stimulation in the in vivo priming phase, followed by restimulation with irradiated tumor cells in the presence of antalarmin, provided conditions also favorable for preventing spleen cell loss induced by tumor cells. Thus, antalarmin was an important factor in preserving immune cells in vivo in the initial phases of ovarian cancer disease.

[2] = tested on: splenic cytotoxic T-cells; assay: redirected lysis assay of spleen cells co-cultured with tumor ascites inhibitory cells; assay type: cell-based, mouse; details: antalarmin 0.5 to 1 micromolar; 3 days co-culture in vitro; stimulation with anti-CD3/CD28 monoclonal antibodies
Method: To assess the IL-2 responsiveness of T-cells within murine ascites, whole populations of cells were cultured overnight for up to 3 days with IL-2 and then tested for lytic activity using the redirected lysis assay. The assay was similar to the assay described for human cells but an anti-mouse CD3 monoclonal antibody (2C11) was used instead of OKT3. While control splenic cells from non-tumor bearing mice contained cytotoxic T-cell lytic function, the ascites samples had no IL-2 responsive T-cell lytic activity.
Experiments were then performed with antalarmin, a CRH receptor antagonist, to determine if manipulation of CRH activity was involved in the regulation of lytic activity in ovarian carcinoma cells. Spleen cells from normal non-tumor bearing mice were co-cultured in vitro for 3 days with tumor ascites inhibitory cells from the mouse model system. […]
Freshly isolated reproductive tract cells were tested for lytic function by an anti-CD3 mAb (OKT3)-dependent redirected lysis assay (White et al., J. Immunology 158:3017, 1997). […] The chromium released into the supernatant fraction was measured to obtain the percent specific cytotoxicity (% specific lysis), i.e. percent of labeled target cells killed by CD3+ effector cells, using duplicate wells and a titration of 3 effector to target ratios. […]

[3] = tested on: implantation sites and live embryos; details: rodents; antalarmin administration; cited from earlier work

CCCCN(CC)c1nc(C)nc2c1c(C)c(C)n2-c1c(C)cc(C)cc1C [antalarmin]
loss of CD3-stimulated T-cells mediated by murine ascites inhibitory cells [1]: prevent the loss of CD3− stimulated T-cells
fetal cell Fas ligand expression (Fas ligand): decrease fetal cell Fas ligand expression
loss of spleen cells at early stages of ovarian carcinoma disease (spleen cells; ID8 cells intraperitoneally, spleen cells harvested ten days after challenge, restimulated, yields tested six days later): prevented the loss of spleen cells
splenic cell yields (spleen cells; antalarmin added to tumor cells for in vivo priming phase, then non-specific stimulation or no stimulation in restimulation phase): best yields of spleen cells
cytotoxic T-cell lytic function down-regulated by tumor ascites inhibitory cells [2]: prevented the down-regulation
number of implantation sites and live embryos [3]: decreased the number of implantation sites an live embryos
